# Values quoted from earlier work, collected in patent publication US11752152B1, “Pharmaceutical formulations of imatinib and uses thereof” (Exvastat Ltd, priority 2022, dated 2023).
# Test system: animal models of sepsis, acute lung injury and impaired microcirculatory perfusion
# Conditions: variety of animal models
structure (smiles),measurement,value
"Cc1ccc(NC(=O)c2ccc(CN3CCN(C)CC3)cc2)cc1Nc1nccc(-c2cccnc2)n1 [Imatinib, 4-[(4-methylpiperazin-1-yl)methyl]-N-[4-methyl-3-[(4-pyridin-3-ylpyrimidin-2-yl)amino]phenyl]benzamide]","effect on endothelial barrier, vascular leak and inflammation","protect the endothelial barrier, prevent vascular leak and reduce inflammation"
